Peptide text beside a SMILES is read from it.
What was measured:
hippocampal neurons = experiment: Neurite outgrowth from hippocampal neurons; conditions: for neurite outgrowth in dose-response study: bell-shaped dose-response curve, 24 h
Description: Neurons were grown on Permanox plastic (Nunc, Denmark) for 24 h at a density 6250 cells/cm^2, at 37° C., 5% CO2 in Neurobasal medium containing 20 mM Hepes, 100 U/ml penicillin, 100 μg/ml streptomycin, 0.4% BSA supplemented with B27 (Gibco BRL, USA). After 24 h, cells were fixed with paraformaldehyde, stained with Coomassie Brilliant Blue R250 and analyzed.
To test this assumption, dissociated neurons from embryonic rat hippocampus were seeded on plastic and allowed to grow for 24 h in the presence of the below described compounds. Thereafter, cells were fixed with paraformaldehyde, stained with Coomassie Brilliant Blue R250 and the length of neurites was measured using a stereological approach (Rønn et al., 2000).
Peptides derived from the FG-lops of the neural cell adhesion molecules L1 and NCAM (third F3-module of L1 and first F3 module of NCAM) were prepared in different lengths, see FIG. 9a, and their effect on neurite outgrowth from primary hippocampal neurons were tested adding the various peptides in a concentration of 25 microM.

FGF-receptor 1 = target: T1, FGF-receptor 1 (Homo sapiens, UniProt P11362); experiment: FGF-receptor phosphorylation in transfected HEK293 cells (immunoblotting); format: cell-based; conditions: 25 μM, 20 min, HEK293 cells with His-tagged FGF-receptor 1
T1 construct: expressed in transfected cells; host or cells: HEK293, transient, PcDNA3.1(+) plasmid
T1 sequence (P11362 22-822): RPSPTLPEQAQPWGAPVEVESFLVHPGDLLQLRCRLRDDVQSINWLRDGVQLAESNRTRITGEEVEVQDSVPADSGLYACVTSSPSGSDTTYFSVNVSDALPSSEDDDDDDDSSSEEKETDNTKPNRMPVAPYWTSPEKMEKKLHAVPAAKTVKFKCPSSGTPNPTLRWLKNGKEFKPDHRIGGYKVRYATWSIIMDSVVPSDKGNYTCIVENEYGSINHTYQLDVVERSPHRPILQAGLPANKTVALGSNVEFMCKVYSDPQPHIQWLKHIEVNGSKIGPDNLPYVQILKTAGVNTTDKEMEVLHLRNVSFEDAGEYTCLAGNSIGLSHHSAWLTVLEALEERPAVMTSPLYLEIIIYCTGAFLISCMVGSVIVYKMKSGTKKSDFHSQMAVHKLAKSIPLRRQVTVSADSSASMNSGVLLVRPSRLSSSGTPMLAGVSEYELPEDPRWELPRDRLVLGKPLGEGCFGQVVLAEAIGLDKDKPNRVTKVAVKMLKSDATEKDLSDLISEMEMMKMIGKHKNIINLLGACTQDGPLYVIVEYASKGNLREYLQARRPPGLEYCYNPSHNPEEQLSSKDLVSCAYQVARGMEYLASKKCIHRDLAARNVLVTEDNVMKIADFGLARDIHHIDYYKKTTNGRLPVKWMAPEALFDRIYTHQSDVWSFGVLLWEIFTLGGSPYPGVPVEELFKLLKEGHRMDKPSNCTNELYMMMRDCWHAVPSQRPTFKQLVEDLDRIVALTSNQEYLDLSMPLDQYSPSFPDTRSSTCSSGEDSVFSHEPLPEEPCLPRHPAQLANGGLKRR
Description: Cells were grown in DMEM 1965 with 10% FCS, 100 U/ml penicillin, 100 μg/ml streptomycin and 58.4 g/l Glutamax. ˜0.8*10^6 cells were plated in 60 mm plates and cultured for 24 hrs before being transfected using LipofectAMIN PLUS™ reagent kit according to manufacturers instructions (Gibco BRL) with 0.2 μg PcDNA3.1(+) plasmid encoding a his-tagged (C-terminal hexa-histidine) version of FGFR-1. Cells were grown another 24 hrs in full medium, and then shifted to starving media (DMEM 1965 with 0.5% FCS) overnight.
FGFR-1 transfected cells, incubated with 50 μg/ml NCAM derived recombinant fIII.2 or FG-loop for 20 minutes or non-stimulated, were lysed in 8M urea in PBS with 1 mM orthovanadate. The FGFR-1 was purified from total lysate via the His-tag moiety on an IMAC column. […] Samples were added SDS-PAGE sample buffer and analysed by western blotting using anti-pentahis ab (#34660 Qiagen) or anti-phosphotyrosine ab (PY20) (#11120 Transduction Laboratories). Bands were visualised by chemilumiscense and density was measured using a GeneGnome from SynGene with a 16 bit camera.
Therefore, HEK293 cells were grown for 24 h on plastic plates, and subsequently transfected with a His-tagged version of the FGF-receptor 1 and cultured for another 24 h. […] The purified FGF-receptor 1 was then analyzed by immunoblotting using antibodies either to the His-tag or phosphotyrosine. […]

[1] = test system: Cerebellar granule neurons; experiment: Survival assay of cerebellar granule neurons in low potassium (MTS); format: cell-based, rat; conditions: 5 mM potassium, two days; for cells surviving, high potassium set at 100%: serum-free
Description: Cerebellar granule neurons (CGN) from 7-days old rats are grown for 7-8 days in the presence of high potassium (40 mM). Cells are washed twice with serum-free culture medium (basal Eagle's medium BME) containing low potassium (5 mM) and grown in serum-free medium supplemented with FGL peptide for two days. Cultures are assayed for cell survival (D'Mello et al., 1997; Villalba et al., 1997; Skaper et al., 1998) by measuring reduction of MTS. MTS is a novel tetrazolium compound (Promega, USA), which is bioreduced by cells into a formazan that is soluble in tissue culture medium. The absorbance of the formazan at 490 nm is measured directly from 96 well assay plates without additional processing. The conversion of MTS into the aqueous soluble formazan is accomplished by dehydrogenase enzymes found in metabolically active cells. The quantity of formazan product as measured by the amount of 490 nm absorbance is directly proportional to the number of living cells in culture (Yao and Cooper, 1995);

For `Nc1ncnc2c1ncn2[C@@H]1O[C@H](COP(=O)(O)OP(=O)(O)CP(=O)(O)O)[C@@H](O)[C@H]1O` [AMP-PCP, reference compound], the “inhibition of the neuritogenic effect of the F3 module” value (hippocampal neurons; 5 μM second F3 module, inhibitor 0.4 or 1 mM) was “complete inhibition” and the “effect on neurite outgrowth when added alone” value (hippocampal neurons; 0.4 or 1 mM) was “did not have any effect”.

With `CC(C)[C@H](NC(=O)[C@H](Cc1ccc(O)cc1)NC(=O)[C@@H](NC(=O)[C@@H](N)CCC(=O)O)C(C)C)C(=O)N[C@H](C(=O)N[C@@H](C)C(=O)N[C@@H](CCC(=O)O)C(=O)N[C@@H](CC(N)=O)C(=O)N[C@@H](CCC(N)=O)C(=O)N[C@@H](CCC(N)=O)C(=O)NCC(=O)N[C@@H](CCCCN)C(=O)N[C@@H](CO)C(=O)N[C@@H](CCCCN)C(=O)N[C@@H](C)C(=O)O)C(C)C` [FG loop peptide] (H-EVYVVAENQQGKSKA-OH) the “increase of FGF-receptor phosphorylation compared to control cells” value (FGF-receptor 1) was “approx. 100%”, the “survival, % of the positive control” value ([1]; 250 microgram per ml, monomeric form) was “up to 90%” and the “survival, result in words” value ([1]; dose-range 2-250 microgram per ml) was “statistically significant survival”. For the same molecule, the “inhibition of induced neurite outgrowth by an antibody against the FGF-receptor” value (hippocampal neurons; 5 μM second F3 module or 50 μM FG loop peptide) was “complete inhibition” and the “neurite outgrowth in dose-response study” value (hippocampal neurons) was “induced neurite outgrowth”.

For AENQQGK [heptamer Ala 77-Lys 83], the “stimulatory effect retained as compared to the entire (non-mutated) FG loop peptide” value (hippocampal neurons; 50 μM peptide) was “approximately 50%”, the “neurite outgrowth in dose-response study” value (hippocampal neurons) was “induced neurite outgrowth” and the “neuritogenic efficiency compared with the extended form” value (hippocampal neurons; dose-response study) was “less efficient than the extended form”.

In the case of AMKEDGR (listed as Homo sapiens), the “neuritogenic potency (neurite outgrowth), result in words” value (hippocampal neurons; 50 μM peptide) is reported as “to the same extent as the similar seven amino acids from the second F3 module of NCAM”.

“EVAVVAENQQGASAA (listed as Homo sapiens)” was tested, and the “neuritogenic potency (neurite outgrowth), result in words” value (hippocampal neurons; 50 μM peptide) was “retained its neuritogenic potency”, the “stimulatory effect retained as compared to the entire (non-mutated) FG loop peptide” value (hippocampal neurons; 50 μM peptide) was “about 60%” and the “inhibition of the peptide's stimulatory effect by ATP” value (hippocampal neurons; 50 μM peptide, ATP 0.4 or 1 mM) was “could no longer be inhibited by ATP”.

With “VAENQQGKS (listed as Homo sapiens) [nonamer Val 76-Ser 84]” the “stimulatory effect retained as compared to the entire (non-mutated) FG loop peptide” value (hippocampal neurons; 50 μM peptide) was “approximately 50%”.

In the case of “basic fibroblast growth factor: growth factor, natural ligand of the FGF-receptor, comparison in the survival assay [reference compound]”, the “cells surviving, high potassium set at 100%” value [1] is reported as ~60%.

B1: brains-derived neurotrophic factor: neurotrophic factor used as comparison in the survival assay (protein, UniProt P23560 19-247, looked up)
Neurotrophic factor BDNF …: APMKEANIRGQGGLAYPGVRTHGTLESVNGPKAGSRGLTSLADTFEHVIEELLDEDQKVRPNEENNKDADLYTSRVMLSSQVPLEPPLLFLLEEYKNYLDAANMSMRVRRHSDPARRGELSVCDSISEWVTAADKKTAVDMSGGTVTVLEKVPVSKGQLKQYFYETKCNPMGYTKEGCRGIDKRHWNSQCRTTQSYVRALTMDSKKRIGWRFIRIDTSCVCTLTIKRGR
For B1, the “cells surviving, high potassium set at 100%” value [1] was ~60%.

Reference: patent publication US8071549B2, “Compounds capable of affecting differentiation, proliferation, regeneration, plasticity and survival cells” (priority 2001, dated 2011)
